Read-outs that look alike come from different tables or passages of the source.
How the values were obtained:
[1] = cited from earlier work
[2] = 1-week intravenous study, single dose level of 1 g; cited from earlier work
[3] = mice, cited from earlier work
[4] = system: advanced head and neck cancer; settings: intent-to-treat, with radiotherapy 70 Gy; cited from earlier work
[5] = PK of TPZ and metabolites SR4317 and SR4330 after intra-arterial injection of TPZ in NS vs HPβCD; assay type: in vivo, Sprague Dawley rats; settings: for dose proportionality of plasma concentrations: 3.33 mg/kg vs. 7 mg/kg in either solvent; for reduction of plasma concentrations in the curve of HPβCD than that of NS: after TPZ in 1% HPβCD vs NS; for AUClast, HβC Mean / Cmax, HβC Mean / AUClast, Normal Saline (NS) Mean / Cmax, Normal Saline (NS) Mean: rats
Source text: Purpose of the study: To evaluate the pharmacokinetics (PK) of tirapazamine and its metabolites, SR4317 and SR4330 [Graham, M A et al. Cancer Chemother. Pharmacol. (1997) 40 (1): 1-10], after injection of TPZ in 1% HPβCD or normal saline.
Animals: Twenty-four female (12) and male (12) Sprague Daley (SD) rats, weight 200-250 grams, respectively, with femoral artery and jugular vein cannulated, were purchased from, Taconic. Two extra cannulated male and female rates were used to test tolerability with buffer. Each rate was housed individually to safeguard the vessel catheters.
The study parameters are shown in Table 22. began after a 3-day period of adjustment to the animal facility. The study compound was injected into the femoral artery catheter (FAC at 2-1 m (by slow injection. Blood samples were collected from a jugular vein catheter (JVC) at 6 timepoints: 0 (baseline) and after drug administration at 15 and 30 minutes, 1 hr, 2 hr, and 6 hours. The volume of blood sample for each time point was approximately 0.6 mL. Plasma samples were collected in tubes containing sodium heparin as anti-coagulant. Plasma was prepared and frozen in −80° C. Rats were euthanized after the last blood sample (euthanized after the 6 hr time point).
Male rats were around 250 grams, and female 200 grams. There were 8 groups with Groups 1-4 females, and […]. Each group had 3 rats. TPZ was dissolved in NS or […] at a concentration 0.7 mg/mL.
The concentrations of TPZ and its metabolites, SR4317 and SR4330, in rat plasma samples were analyzed using liquid chromatography Tandem Mass Spectrometry (LC-MS) by Primera Analytical Solutions Corp (Princeton, NJ). Standards for TPZ, SR4317 and SR4330 were provided by Teclison, Inc. (Princeton, NJ) for calibration. All analytical data were reviewed for completeness and accuracy. Data transferred manually was cross-checked against source data which was part of the study raw data.
LC-MS analysis was conducted with Sciex 4000 with a Shimadzu LC-30 System.
The concentration data was imported and plotted with SAS program as ADPC (Analysis Dataset of Pharmacokinetics Concentrations) dataset. PK parameters calculated based on ADPC were output as an Analysis Dataset of Pharmacokinetics Parameters (ADPP) dataset.
PK parameters of each profile were calculated by non-compartmental analysis using SAS programming. BLQ (Below the Limit of Quantification) observation prior to the first measurable concentration was imputed as zero, otherwise, the BLQ observation was left as missing.
An apparent first-order terminal elimination rate constant (Kel) was calculated by linear least-squares regression analysis using at least three points (excluding Cmax) in the terminal log-linear phase. Uniform weighting was adopted when performing regression analysis. Linear-up/log-down approach was utilized to calculate AUC.
A linear model was built to evaluate the effect of solution on the PK parameters, adjusting for sex and dose. The model included sex (F, M), solution type (Normal saline, Hydroxypropyl-beta-Cyclodextrin “HP-beta-CD”), and dose (mg) as fixed effects. Sex and solution type are categorical variables (meaning a variable based on a qualitative, not numerical, property) and dose is a continuous variable (meaning a random variable that can take on an infinite number of values within a certain interval that represents measurable data). Separate models were built for each combination of analyte (TPZ, SR4317 and SR4330) and PK parameters (AUClast and Cmax) using the BY statement, which divides the observations from an input data set into groups for processing.
The difference of lease squared means between solution types was estimated. 95% confidence intervals (CI), and p-values for the difference were presented. The significance level (alpha) was set at 0.05, meaning that a p-value less than 0.05 was considered statistically significant.

HCC = settings: cited from earlier work
[6] = intra-arterial TPZ 3.33 mg/kg in HPβCD
[7] = intra-arterial TPZ 3.33 mg/kg in NS
[8] = intra-arterial TPZ 7 mg/kg in HPβCD
[9] = intra-arterial TPZ 7 mg/kg in NS

Row | Molecule | AUClast HβC/NS Ratio (%) ([5]; 3.33 mg/kg) | Cmax HβC/NS Ratio (%) ([5]; 3.33 mg/kg) | dose proportionality of plasma concentrations [5] | AUClast HβC/NS Ratio (%) ([5]; 7 mg/kg) | Cmax HβC/NS Ratio (%) ([5]; 7 mg/kg) | reduction of plasma concentrations in the curve of HPβCD than that of NS [5] | AUClast, HβC Mean [5, 6] [ng·h/mL] | Cmax, HβC Mean [5, 6] [ng/mL] | AUClast, Normal Saline (NS) Mean [5, 7] [ng·h/mL] | Cmax, Normal Saline (NS) Mean [5, 7] [ng/mL] | AUClast, HβC Mean [5, 8] [ng·h/mL] | Cmax, HβC Mean [5, 8] [ng/mL] | AUClast, Normal Saline (NS) Mean [5, 9] [ng·h/mL] | Cmax, Normal Saline (NS) Mean [5, 9] [ng/mL] | further results
1 | 2-hydroxypropyl-β-cyclodextrin [HPβCD] | – | – | – | – | – | – | – | – | – | – | – | – | – | – | daily dose considered non-toxic ([1]; at least for 14 days): < 16 g; tolerability ([1]; daily oral doses of 4-8 g for at least 2 weeks): well tolerated and safe; adverse effects ([1]; oral daily doses of 16-24 g for 14 days, healthy volunteers): increased incidence of soft stools and diarrhea; adverse effects [2]: no adverse effects were reported; lethality ([3]; single intravenous dose of up to 2 g/kg): not lethal; acute toxicity ([3]; up to 10 gram/kg intra-peritoneal (i.p.) injection): neither lethal nor did it produce any toxicity
2 | N.N.[Cl][Pt][Cl] [CIS, cisplatin] | – | – | – | – | – | – | – | – | – | – | – | – | – | – | 2-year OS rates [4]: 65.7%
3 | Nc1nc2ccccc2[n+]([O-])n1 [SR4317] | 78.09 | 80.62 | dose proportional effect was observed | 78.86% | 88.17 | 20-30% | 479.96 | 490.17 | 614.61 | 608.00 | 1210.97 | 1122.67 | 1535.52 | 1273.33 | –
4 | COc1cccc2c1C(=O)c1c(O)c3c(c(O)c1C2=O)C[C@@](O)(C(=O)CO)C[C@@H]3O[C@H]1C[C@H](N)[C@H](O)[C@H](C)O1 [doxorubicin] | – | – | – | – | – | – | – | – | – | – | – | – | – | – | necrosis in the HCC within the territory of HAL (HCC; Day 1 post-treatment, tirapazamine 3 mg/kg, doxorubicin 10 mg/kg, transient left HAL): about 5%; pathological changes in HCCs (HCC; Day 7, 10 mg/kg with left HAL): Little to no pathological changes
5 | Nc1nnc2ccccc2n1 [SR4330] | 73.09 | 77.65 | dose proportional effect was observed | 74.37& % | 89.31 | 20-30% | 99.89 | 81.88 | 136.67 | 105.45 | 385.93 | 254.83 | 518.92 | 285.33 | half-life compared with TPZ and SR4317 ([5]; rat plasma): longer than TPZ and SR4317

From patent publication US20250345356A1, “TIRAPAZAMINE COMPOSITIONS AND METHODS” (priority 2024, published 2025)
